# From PubChem BioAssay (NCI)
#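 How tested: cells in 96-well plates exposed to compound for 48 hours at five concentrations. TGI: total growth inhibition.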
# How the values were obtained:
# Experiment in all cases: inhibition of tumour cell growth, NCI panel, 48 h
# SF-295 CNS = system: SF-295 CNS
# RPMI-8226 leukemia = system: RPMI-8226 leukemia
# MDA-N = system: MDA-N
# MOLT-4 leukemia = system: MOLT-4 leukemia
# HS 578T breast = system: HS 578T breast
# HCC-2998 colon = system: HCC-2998 colon
# CAKI-1 renal = system: CAKI-1 renal
# UO-31 renal = system: UO-31 renal
# RXF 393 renal = system: RXF 393 renal
# HCT-15 colon = system: HCT-15 colon
# UACC-62 melanoma = system: UACC-62 melanoma
# 786-0 renal = system: 786-0 renal
# SN12C renal = system: SN12C renal
# MALME-3M melanoma = system: MALME-3M melanoma
# A549 NSCLC = system: A549 NSCLC
# SK-MEL-2 melanoma = system: SK-MEL-2 melanoma
# CCRF-CEM leukemia = system: CCRF-CEM leukemia
# ACHN renal = system: ACHN renal
# OVCAR-3 ovarian = system: OVCAR-3 ovarian
# IGROV1 ovarian = system: IGROV1 ovarian
# OVCAR-4 ovarian = system: OVCAR-4 ovarian
# K-562 leukemia = system: K-562 leukemia
# NCI-H522 lung = system: NCI-H522 lung
# SW-620 colon = system: SW-620 colon
# BT-549 breast = system: BT-549 breast
# SNB-75 CNS = system: SNB-75 CNS
# HL-60(TB) leukemia = system: HL-60(TB) leukemia
# SK-OV-3 ovarian = system: SK-OV-3 ovarian
# DU-145 prostate = system: DU-145 prostate
# EKVX NSCLC = system: EKVX NSCLC
# MCF7 breast = system: MCF7 breast
# HT29 colon = system: HT29 colon
# KM12 colon = system: KM12 colon
# MDA-MB-231 breast = system: MDA-MB-231 breast
# NCI/ADR-RES ovarian = system: NCI/ADR-RES ovarian
# A498 renal = system: A498 renal
# SF-268 CNS = system: SF-268 CNS
# COLO 205 colon = system: COLO 205 colon
# SK-MEL-28 melanoma = system: SK-MEL-28 melanoma
# HOP-92 NSCLC = system: HOP-92 NSCLC
# HCT-116 colon = system: HCT-116 colon
# SNB-19 CNS = system: SNB-19 CNS
# M14 melanoma = system: M14 melanoma
# OVCAR-5 ovarian = system: OVCAR-5 ovarian
# LOX IMVI melanoma = system: LOX IMVI melanoma
# T-47D breast = system: T-47D breast
# TK-10 renal = system: TK-10 renal
# UACC-257 melanoma = system: UACC-257 melanoma
# NCI-H460 lung = system: NCI-H460 lung
# NCI-H23 lung = system: NCI-H23 lung
# OVCAR-8 ovarian = system: OVCAR-8 ovarian
# HOP-62 NSCLC = system: HOP-62 NSCLC
# SK-MEL-5 melanoma = system: SK-MEL-5 melanoma
# SF-539 CNS = system: SF-539 CNS
# U251 CNS = system: U251 CNS
# NCI-H226 lung = system: NCI-H226 lung
# PC-3 prostate = system: PC-3 prostate
# SR leukemia = system: SR leukemia
# MDA-MB-435 = system: MDA-MB-435
compound,measurement,setting,value
CN(C)/C=C/c1ccnc2c1C(=O)c1ccccc1C2=O,TGI,SF-295 CNS,14.3 µM
same,TGI,RPMI-8226 leukemia,39.3 µM
same,TGI,MDA-N,3.03 µM
same,TGI,MOLT-4 leukemia,> 64.1 µM
same,TGI,HS 578T breast,7.06 µM
same,TGI,HCC-2998 colon,22.6 µM
same,TGI,CAKI-1 renal,50.8 µM
same,TGI,UO-31 renal,43.6 µM
same,TGI,RXF 393 renal,> 100 µM
same,TGI,HCT-15 colon,31.5 µM
same,TGI,UACC-62 melanoma,2.9 µM
same,TGI,786-0 renal,73.6 µM
same,TGI,SN12C renal,19.8 µM
same,TGI,MALME-3M melanoma,5.09 µM
same,TGI,A549 NSCLC,> 56.7 µM
same,TGI,SK-MEL-2 melanoma,18.3 µM
same,TGI,CCRF-CEM leukemia,> 56 µM
same,TGI,ACHN renal,> 50.7 µM
same,TGI,OVCAR-3 ovarian,> 100 µM
same,TGI,IGROV1 ovarian,35.2 µM
same,TGI,OVCAR-4 ovarian,66 µM
same,TGI,K-562 leukemia,> 47.1 µM
same,TGI,NCI-H522 lung,24.2 µM
same,TGI,SW-620 colon,21.5 µM
same,TGI,BT-549 breast,14.9 µM
same,TGI,SNB-75 CNS,16.1 µM
same,TGI,HL-60(TB) leukemia,> 55.5 µM
same,TGI,SK-OV-3 ovarian,> 100 µM
same,TGI,DU-145 prostate,3.41 µM
same,TGI,EKVX NSCLC,44.3 µM
same,TGI,MCF7 breast,> 44.7 µM
same,TGI,HT29 colon,37.9 µM
same,TGI,KM12 colon,> 64.2 µM
same,TGI,MDA-MB-231 breast,> 89 µM
same,TGI,NCI/ADR-RES ovarian,57.4 µM
same,TGI,A498 renal,> 85.6 µM
same,TGI,SF-268 CNS,> 69 µM
same,TGI,COLO 205 colon,> 55.1 µM
same,TGI,SK-MEL-28 melanoma,5.95 µM
same,TGI,HOP-92 NSCLC,> 100 µM
same,TGI,HCT-116 colon,20.9 µM
same,TGI,SNB-19 CNS,25.6 µM
same,TGI,M14 melanoma,4.16 µM
same,TGI,OVCAR-5 ovarian,32.5 µM
same,TGI,LOX IMVI melanoma,20.7 µM
same,TGI,T-47D breast,> 85 µM
same,TGI,TK-10 renal,> 100 µM
same,TGI,UACC-257 melanoma,6.19 µM
same,TGI,NCI-H460 lung,7.13 µM
same,TGI,NCI-H23 lung,7.17 µM
same,TGI,OVCAR-8 ovarian,59.1 µM
same,TGI,HOP-62 NSCLC,62.6 µM
same,TGI,SK-MEL-5 melanoma,4.22 µM
same,TGI,SF-539 CNS,39.5 µM
same,TGI,U251 CNS,49.7 µM
same,TGI,NCI-H226 lung,> 52.7 µM
same,TGI,PC-3 prostate,56.7 µM
CCC1(CC)C(=O)N(C(=O)c2ccc(Cl)cc2)N(C(=O)c2ccccc2Cl)C1=O,TGI,SF-295 CNS,> 100 µM
same,TGI,RPMI-8226 leukemia,78.9 µM
same,TGI,MDA-N,> 100 µM
same,TGI,MOLT-4 leukemia,52.2 µM
same,TGI,HS 578T breast,> 100 µM
same,TGI,HCC-2998 colon,> 100 µM
same,TGI,CAKI-1 renal,> 100 µM
same,TGI,UO-31 renal,> 100 µM
same,TGI,RXF 393 renal,> 100 µM
same,TGI,HCT-15 colon,> 100 µM
same,TGI,UACC-62 melanoma,> 100 µM
same,TGI,786-0 renal,> 100 µM
same,TGI,SN12C renal,> 100 µM
same,TGI,MALME-3M melanoma,> 100 µM
same,TGI,A549 NSCLC,> 100 µM
same,TGI,SK-MEL-2 melanoma,> 100 µM
same,TGI,CCRF-CEM leukemia,> 100 µM
same,TGI,ACHN renal,> 100 µM
same,TGI,OVCAR-3 ovarian,> 100 µM
same,TGI,IGROV1 ovarian,16.3 µM
same,TGI,SR leukemia,> 100 µM
same,TGI,OVCAR-4 ovarian,> 100 µM
same,TGI,K-562 leukemia,> 100 µM
same,TGI,NCI-H522 lung,48.1 µM
same,TGI,SW-620 colon,89.8 µM
same,TGI,BT-549 breast,> 100 µM
same,TGI,SNB-75 CNS,> 100 µM
same,TGI,HL-60(TB) leukemia,> 100 µM
same,TGI,SK-OV-3 ovarian,> 100 µM
same,TGI,DU-145 prostate,> 100 µM
same,TGI,EKVX NSCLC,24.9 µM
same,TGI,MCF7 breast,> 100 µM
same,TGI,HT29 colon,22.6 µM
same,TGI,KM12 colon,> 100 µM
same,TGI,MDA-MB-231 breast,> 100 µM
same,TGI,NCI/ADR-RES ovarian,> 100 µM
same,TGI,SF-268 CNS,> 100 µM
same,TGI,COLO 205 colon,> 100 µM
same,TGI,SK-MEL-28 melanoma,> 100 µM
same,TGI,HCT-116 colon,> 100 µM
same,TGI,SNB-19 CNS,> 100 µM
same,TGI,MDA-MB-435,43.9 µM
same,TGI,M14 melanoma,> 100 µM
same,TGI,OVCAR-5 ovarian,> 100 µM
same,TGI,LOX IMVI melanoma,50.3 µM
same,TGI,T-47D breast,> 100 µM
same,TGI,TK-10 renal,> 100 µM
same,TGI,UACC-257 melanoma,> 100 µM
same,TGI,NCI-H460 lung,41.8 µM
same,TGI,NCI-H23 lung,> 100 µM
same,TGI,OVCAR-8 ovarian,> 100 µM
same,TGI,HOP-62 NSCLC,> 100 µM
same,TGI,SK-MEL-5 melanoma,> 100 µM
same,TGI,U251 CNS,> 100 µM
same,TGI,NCI-H226 lung,31.5 µM
same,TGI,PC-3 prostate,> 100 µM
C/C(=C1/N=C(c2ccccc2)OC1=O)c1cccs1,TGI,SF-295 CNS,> 100 µM
same,TGI,RPMI-8226 leukemia,> 100 µM
same,TGI,MDA-N,> 100 µM
same,TGI,MOLT-4 leukemia,> 100 µM
same,TGI,HS 578T breast,> 100 µM
same,TGI,HCC-2998 colon,> 100 µM
same,TGI,CAKI-1 renal,> 100 µM
same,TGI,RXF 393 renal,> 100 µM
same,TGI,HCT-15 colon,> 100 µM
same,TGI,UACC-62 melanoma,> 100 µM
same,TGI,786-0 renal,> 100 µM
same,TGI,SN12C renal,> 100 µM
same,TGI,MALME-3M melanoma,> 100 µM
same,TGI,A549 NSCLC,> 100 µM
same,TGI,SK-MEL-2 melanoma,> 100 µM
same,TGI,CCRF-CEM leukemia,> 100 µM
same,TGI,ACHN renal,> 100 µM
same,TGI,OVCAR-3 ovarian,> 100 µM
same,TGI,IGROV1 ovarian,> 100 µM
same,TGI,SR leukemia,> 100 µM
same,TGI,OVCAR-4 ovarian,> 100 µM
same,TGI,K-562 leukemia,> 100 µM
same,TGI,NCI-H522 lung,> 100 µM
same,TGI,SW-620 colon,> 100 µM
same,TGI,BT-549 breast,> 100 µM
same,TGI,SNB-75 CNS,> 100 µM
same,TGI,HL-60(TB) leukemia,> 100 µM
same,TGI,SK-OV-3 ovarian,> 100 µM
same,TGI,DU-145 prostate,> 100 µM
same,TGI,EKVX NSCLC,> 100 µM
same,TGI,MCF7 breast,> 100 µM
same,TGI,HT29 colon,> 100 µM
same,TGI,KM12 colon,> 100 µM
same,TGI,MDA-MB-231 breast,> 100 µM
same,TGI,A498 renal,> 100 µM
same,TGI,SF-268 CNS,> 100 µM
same,TGI,COLO 205 colon,> 100 µM
same,TGI,SK-MEL-28 melanoma,> 100 µM
same,TGI,HOP-92 NSCLC,> 100 µM
same,TGI,HCT-116 colon,> 100 µM
same,TGI,SNB-19 CNS,> 100 µM
same,TGI,MDA-MB-435,> 100 µM
same,TGI,M14 melanoma,> 100 µM
same,TGI,OVCAR-5 ovarian,> 100 µM
same,TGI,LOX IMVI melanoma,> 100 µM
same,TGI,T-47D breast,> 100 µM
same,TGI,TK-10 renal,> 100 µM
same,TGI,UACC-257 melanoma,> 100 µM
same,TGI,NCI-H460 lung,> 100 µM
same,TGI,NCI-H23 lung,> 100 µM
same,TGI,OVCAR-8 ovarian,> 100 µM
same,TGI,HOP-62 NSCLC,> 100 µM
same,TGI,SK-MEL-5 melanoma,> 100 µM
same,TGI,SF-539 CNS,> 100 µM
same,TGI,U251 CNS,> 100 µM
same,TGI,NCI-H226 lung,> 100 µM
same,TGI,PC-3 prostate,> 100 µM
